Here are results for three molecules from paper PMC7291367, “Insightful Backbone Modifications Preventing Proteolytic Degradation of Neurotensin Analogs Improve NTS1-Induced Protective Hypothermia” (Frontiers in Chemistry, 2020).

For one data set, the system named is Sprague-Dawley rats. Description: Body temperature measurement after intrathecal injection. It is filed as in vivo. The note with it: rat; for effect on body temperature: compared to the saline-treated group; for Hypothermia ΔTemp: 30 μg/kg, i.t., change in body temperature from baseline at 60 min. The source says:
The experimental procedures in this study were approved by the Animal Care Committee of the Université de Sherbrooke (protocol n°035-18B) and were in accordance with policies and directives of the Canadian Council on Animal Care. Adult male Sprague-Dawley rats, weighing 175–225 g (Charles River laboratories, St-Constant, Québec, Canada), were maintained on a 12-h light/dark cycle with free access to food and water and were housed two per cage on Aspen shavings in a quiet room.
Rats were lightly anesthetized with isoflurane/oxygen (Baxter corporation, Mississauga, ON, Canada; 2 L/min) flow and 25 μl of each compound were injected intrathecally with a 27-G 1/2 needle (BD PrecisionGlide, USA) into the subarachnoid space between vertebrae L5 and L6. Analogs 1–14 were diluted in physiological saline at 5 mg/ml, whereas compounds 15 and 16 were diluted in DMSO. For body temperature measurement, the injected solution of these both compounds contained 6% DMSO at final concentration (30 μg/kg).
Three consecutive days prior to testing, animals were individually acclimatized to manipulations and to a thermistor probe 5 min per day. The day of the test, experiments were always performed in a quiet room and between 8:00 and 12:00 PM. to reduce any variation related to the circadian rhythm. Body temperature was measured using a thermistor probe inserted into the rectum of adult Sprague-Dawley rats. Temperatures were recorded immediately before (baseline) and each 10 min for up to 60 min following intrathecal administration of saline, vehicle (6% DMSO) or NT analogs at 30 μg/kg. Changes in body temperature (Δ body temp) from baseline were determined for each animal. Data are expressed as mean ± SEM of 5 to 20 animals per condition.
Data are expressed as mean ± standard errors of the mean (SEM). All graphs and statistical analysis were performed using GraphPad Prism 8 (GraphPad software, La Jolla, CA, USA). A two-way ANOVA followed by Bonferroni's multiple comparisons test was used to determine significant differences between drug- and vehicle-treated rats at different timepoints post-injection.

Data set [1] addresses T1, hNTS2 (Homo sapiens, UniProt O95665). The data set can be described thus: Competitive radioligand binding assay, 125I-[Tyr3]-NT displacement, 1321N1 cell membranes. The note with it: ratio of Ki hNTS1 to Ki hNTS2. As for the experimental part: (§1) All media and additives are from Wisent (St-Bruno, QC). […] After 1 h of incubation at room temperature, the binding reaction mixture was transferred in polyethylenimine-coated 96-well-filter plates (Millipore, Billerica, MA). Reaction was terminated by filtration, and plates were washed three times with 200 μl of ice-cold binding buffer. […] Data were plotted using GraphPad Prism 8 using the One-site—Fit log (IC50) and represent the mean ± SEM of at least three separate experiments performed in triplicate.

Data set [2] addresses T1, hNTS2. As to conditions: Ki values taken from the literature (Figure 1 legend) ref Fanelli et al., 2015; Eiselt et al., 2019; read-out: Binding, Ki hNTS2; cited from earlier work.
Data set [3] deals with T2, hNTS1 (Homo sapiens, UniProt P30989). The note with it: 2015, cited from earlier work.
T2 sequence (P30989 whole entry): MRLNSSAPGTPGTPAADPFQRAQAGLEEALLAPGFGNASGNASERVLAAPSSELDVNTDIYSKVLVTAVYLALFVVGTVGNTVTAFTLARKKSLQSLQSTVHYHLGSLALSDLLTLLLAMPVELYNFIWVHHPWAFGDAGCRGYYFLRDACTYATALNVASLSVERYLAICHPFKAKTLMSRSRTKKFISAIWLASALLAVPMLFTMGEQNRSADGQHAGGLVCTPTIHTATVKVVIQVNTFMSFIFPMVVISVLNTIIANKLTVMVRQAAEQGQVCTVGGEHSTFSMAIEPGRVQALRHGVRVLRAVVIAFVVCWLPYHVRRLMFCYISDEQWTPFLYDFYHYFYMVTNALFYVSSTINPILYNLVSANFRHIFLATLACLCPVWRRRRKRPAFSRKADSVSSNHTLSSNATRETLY
The nature of data set [4]: Plasma stability assay (UPLC/MS). The data set is classed as in vitro ADME. The note with it: rat, plasma, 37°C, incubation up to 24 h. Here is the method: Rat plasma was obtained from blood by keeping the translucent phase after centrifugation at 15,000 g over 5 min. Plasma stability assay was carried out by incubating each compound at different incubation times in rat plasma at a final concentration of 0.156 mM. […] Then, 70 μl of a solution containing 10% trichloroacetic acid (TCA) and 0.5% nicotinamine, an internal standard, was added to stop the degradation by proteases. After centrifugation at 15,000 g for 30 min, supernatant was filtered through 0.22-μm filter and analyzed by UPLC/MS (Water H Class Acquity UPLC, mounted with Acquity UPLC BEH C18 column, 1.7 μm, 2.1 × 50 mm and paired to a SQ Detector 2). Compounds 1, 2, and 5 were analyzed using the mass or UV spectrum. Quantification was done by determining the area under the curve (AUC) ratio of each compound over AUC of nicotinamine for each incubation time. Data were plotted into GraphPad Prism 8 and the half-life of each compound was calculated using one-phase decay fit and represented the mean ± SEM of minimum three separate experiments.

The target in data set [5] is T2, hNTS1. The data set can be described thus: Competitive radioligand binding assay, 125I-[Tyr3]-NT displacement, CHO-K1 cell membranes. Here is the method:
as §1

[6] abbreviates: Ki values taken from the literature (Figure 1 legend) ref Fanelli et al., Eiselt et al., 2019, read-out: Binding, Ki hNTS1.

Entries after “also recorded” stand apart in the source; their conditions may differ. Where two headings read alike, the source gives them in different places. Numbered stars: 1 amine (or outer) side, 2 acyl side, 3 side chain; on linkers, the order of the positions; unused ones are H or OH. Square brackets hold non-standard residues; d marks the D form. Peptide text beside a SMILES is read from it. X1 = NCCCC[C@H](N)CN([C@@H](CCCCN)C(=O)[*:2])[*:1]; Ala(SiMe3) = C[Si](C)(C)C[C@H](N)C(=O)O; Dmt = Cc1cc(O)cc(C)c1C[C@H](N)C(=O)O; Tle = CC(C)(C)[C@H](N)C(=O)O

T1 sequence (O95665 whole entry): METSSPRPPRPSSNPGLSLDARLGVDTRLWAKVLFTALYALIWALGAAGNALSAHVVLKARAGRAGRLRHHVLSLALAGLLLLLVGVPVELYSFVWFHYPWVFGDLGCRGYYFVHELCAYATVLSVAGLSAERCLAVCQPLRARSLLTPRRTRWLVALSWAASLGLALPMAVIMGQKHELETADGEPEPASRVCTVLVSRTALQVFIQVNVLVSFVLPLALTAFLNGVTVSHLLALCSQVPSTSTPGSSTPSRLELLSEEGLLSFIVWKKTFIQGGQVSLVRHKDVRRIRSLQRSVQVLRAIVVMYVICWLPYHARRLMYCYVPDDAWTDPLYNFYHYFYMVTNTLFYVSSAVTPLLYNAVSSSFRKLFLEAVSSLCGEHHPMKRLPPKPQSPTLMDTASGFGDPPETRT

For the molecule `Cc1cc(O)cc(C)c1C[C@H](NC(=O)[C@@H]1CCCN1C(=O)[C@H](CCCCN)NC(=O)[C@@H](N)CCCCN)C(=O)N[C@H](C(=O)N[C@@H](CC(C)C)C(=O)O)C(C)(C)C` [Compound 15, H-Lys-Lys-Pro-Dmt-Tle-Leu-OH] (H-KKP[Dmt][Tle]L-OH), the “effect on body temperature” value in the data set with Sprague-Dawley rats (30 μg/kg i.t.) is “not effective in reducing the body temperature; also recorded: not effective to induce drop in body temperature”. For the same molecule, in the data set with Sprague-Dawley rats, the “Hypothermia ΔTemp” value is 0.14 ± 0.2 °C. The NTS1/NTS2 selectivity at hNTS2 [1] was found to be 24. Further, the inhibition constant Ki on hNTS2 [2] is 2.4 ± 1 nM; on hNTS1 [3] (setting [6]) it was 57 ± 6 nM.

As to `Cc1cc(O)cc(C)c1C[C@H](NC(=O)[C@@H]1CCCN1C(=O)[C@H](CCCCN)NC[C@@H](N)CCCCN)C(=O)N[C@H](C(=O)N[C@@H](CC(C)C)C(=O)O)C(C)(C)C` [Compound 16, H-Lysψ[CH2NH]Lys-Pro-Dmt-Tle-Leu-OH] (H-[X1]P[Dmt][Tle]L-OH), in the data set with Sprague-Dawley rats (30 μg/kg i.t.), the “effect on body temperature” value is “long-lasting hypothermia”. Further, the “Hypothermia ΔTemp” value in the data set with Sprague-Dawley rats is −2.0 ± 0.3 °C. In addition, the temperature drop result in the data set with Sprague-Dawley rats (for up to 60 min, 30 μg/kg i.t.) is “more than 2 °C”. The molecule also had a half-life at 0.156 mM in data set [4] of over 20 h. In addition, the NTS1/NTS2 selectivity at hNTS2 [1] came to 79. Besides, the Ki on hNTS2 [2] was 1.4 ± 0.5 nM; at hNTS1 [3] (setting [6]) it was 110 ± 2 nM.

Take `CC[C@H](C)[C@H](NC(=O)[C@H](Cc1ccc(O)cc1)NC(=O)[C@@H]1CCCN1C(=O)[C@H](CCCCN)NC(=O)[C@@H](N)CCCCN)C(=O)N[C@@H](C[Si](C)(C)C)C(=O)O` [Compound 3, H-Lys-Lys-Pro-Tyr-Ile-TMSAla-OH] (H-KKPYI[Ala(SiMe3)]-OH): the “fold increase in affinity at NTS1” value is reported as 220 fold on hNTS1 [5] (compared to 1) and 80 fold at hNTS1 [5] (compared to native NT(8-13)). Besides, in the data set with Sprague-Dawley rats (30 μg/kg i.t.), the “effect on body temperature” value was “not effective in reducing the body temperature; also recorded: not effective to induce drop in body temperature”. Besides, in the data set on Sprague-Dawley rats, the “Hypothermia ΔTemp” value is −0.07 ± 0.1 °C. The NTS1/NTS2 selectivity on hNTS2 [1] is 0.1. The inhibition constant (Ki) at hNTS2 [2] was 0.25 ± 0.07 nM; on hNTS1 [3] (setting [6]) it was 0.018 ± 0.004 nM; at hNTS1 [3] (ref Fanelli et al., read-out: Ki NTS1), about 0.02 nM.
